Reference: article PMC4860631, “Pharmacokinetics and tolerability of NSC23925b, a novel P-glycoprotein inhibitor: preclinical study in mice and rats” (Scientific Reports, 2016)
Like-named read-outs stand apart in the source and are kept apart here. Values belong to the compound of their own block, whether it stands above or below them.

Experiments:
[1] = target: T1, CYP2B6 (Homo sapiens, UniProt P20813); test: HLM-LC-MS CYP450 inhibition assay, CYP2B6; assay type: in vitro ADME; settings: substrate bupropion 70 μM, hydroxylation, read-out: Compound IC50
T1 construct: from tissue; host or cells: human liver microsomes
T1 sequence (P20813 1-491): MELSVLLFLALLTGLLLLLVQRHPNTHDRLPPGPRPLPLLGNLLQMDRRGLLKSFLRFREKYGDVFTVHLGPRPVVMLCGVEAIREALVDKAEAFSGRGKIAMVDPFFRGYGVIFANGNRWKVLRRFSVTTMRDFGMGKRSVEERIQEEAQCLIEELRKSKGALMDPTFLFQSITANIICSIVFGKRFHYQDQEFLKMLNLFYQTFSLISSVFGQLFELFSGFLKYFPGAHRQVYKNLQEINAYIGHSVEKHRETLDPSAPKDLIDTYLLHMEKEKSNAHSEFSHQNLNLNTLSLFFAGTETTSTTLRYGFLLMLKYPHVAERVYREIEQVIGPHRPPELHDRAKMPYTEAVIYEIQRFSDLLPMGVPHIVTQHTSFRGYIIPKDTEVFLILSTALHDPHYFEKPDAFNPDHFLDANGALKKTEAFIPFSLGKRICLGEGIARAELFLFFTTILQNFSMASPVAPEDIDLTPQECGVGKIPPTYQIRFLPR
Procedure: (§1) Compounds were tested in triplicate.

[2] = male, Sprague-Dawley, rat, in vivo, iv
[3] = Plasma pharmacokinetics after single I.P./I.V. dose in male BALB/c mice (LC-MS/MS); settings: for AUC(0-inf): AUC0-inf; for AUC(0-t): AUC0-t; for Vd: VdSS; for clearance: CL; for k el: Kel
Procedure: After dosing, blood samples were collected at different time points for each group. […] Three animals were used for each time point. Approximately 800 μL of blood was collected via orbital vein (a source of collecting sufficient volume of venous blood) from each anesthetized mouse by isoflurane, and 200 μL of blood was collected from the cannula implanted in the jugular vein. The catheter was implanted when the blood sample was collected at the first time point. Next, the blood was transferred to a prepared tube containing sodium heparin anticoagulant and mixed briefly by gentle inversion three to four times. The target and actual time of blood sampling were recorded relative to the time of dosing. Samples were placed on wet ice immediately after collection. Within 1 hour after collection, plasma was separated by centrifugation at 4,000 rpm for 10 minutes at 4 °C. The plasma was protected from light and stored at −80 °C until analyzed by liquid chromatography-mass spectrometry/mass spectrometry (LC-MS/MS) for quantification.
Using the data from the standards, calibration curves were generated for each analytical batch. Aliquots of 10.0 μL of samples, calibraton curve samples, and QC samples were supplemented with 100 μL of precipitant (a mixture of acetone and acetonitrile (30:70)). After vortexing for 3 min and centrifuging at 12,000 rpm for 3 min, 75.00 μL of the supernatant was transferred into a 96-well microplate with an equal volume of water. The 10 μL mixture solution was injected for LC-MS/MS analysis.
Data collection was performed using Analyst version 1.4 from Applied Biosystems. […] The data were also analyzed using Prism 5.0 software. Statistical significance was determined using independent two-tailed Student t-tests and one-way ANOVA for independent data. Differences of P < 0.05 were regarded as significant for all statistical analyses.

[4] = Plasma pharmacokinetics after single I.P./I.V. dose in male Sprague-Dawley rats (LC-MS/MS); settings: for MRTIV / clearance / k el: SD rats; for clearance / k el / half-life: male, Sprague-Dawley, rat, plasma, iv, 1 mg/kg; for clearance: CL; for k el: Kel; for half-life: t1/2, SD rats
[5] = in vivo; settings: male, Sprague-Dawley, rat, iv; for AUC(0-inf): AUC0-inf; for AUC(0-t): AUC0-t
[6] = target: T2, CYP2C19 (Homo sapiens, UniProt P33261); test: HLM-LC-MS CYP450 inhibition assay, CYP2C19; assay type: in vitro ADME; settings: substrate S-mephenytoin 35 μM, 4-hydroxylation, read-out: Compound IC50
T2 construct: from tissue; host or cells: human liver microsomes
T2 sequence (P33261 whole entry): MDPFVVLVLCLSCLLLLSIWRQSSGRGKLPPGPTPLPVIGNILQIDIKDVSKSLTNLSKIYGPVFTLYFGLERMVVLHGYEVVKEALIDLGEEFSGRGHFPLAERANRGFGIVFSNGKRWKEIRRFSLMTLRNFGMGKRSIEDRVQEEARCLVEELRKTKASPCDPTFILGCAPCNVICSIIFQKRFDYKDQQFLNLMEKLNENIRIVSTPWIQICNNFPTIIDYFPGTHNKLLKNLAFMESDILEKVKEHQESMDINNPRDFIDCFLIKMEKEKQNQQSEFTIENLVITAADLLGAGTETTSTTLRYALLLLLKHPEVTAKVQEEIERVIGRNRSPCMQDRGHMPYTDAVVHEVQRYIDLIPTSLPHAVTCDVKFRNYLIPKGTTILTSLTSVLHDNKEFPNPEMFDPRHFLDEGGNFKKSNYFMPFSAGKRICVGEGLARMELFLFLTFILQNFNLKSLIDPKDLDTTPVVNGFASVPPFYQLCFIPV
Procedure: as §1

[7] = male, BALB/c, mouse, in vivo, iv, 2 mg/kg
[8] = male, BALB/c, mouse, plasma, iv, 2 mg/kg, BALB/c mice, doxorubicin I.V. 2.00 mg/kg alone
[9] = male, BALB/c, mouse, plasma, iv, 2 mg/kg, BALB/c mice, doxorubicin I.V. 2.00 mg/kg combined with NSC23925b 2.50 mg/kg
[10] = doxorubicin I.V. 1.00 mg/kg alone
[11] = doxorubicin I.V. 1.00 mg/kg combined with NSC23925b 2.50 mg/kg
[12] = male, BALB/c, mouse, in vivo, iv, 5 mg/kg

SMILES: COC(=O)[C@H](c1ccccc1Cl)N1CCc2sccc2C1 [Clopidogrel, reference compound]
- IC50 [1]: 914 nM

- AUMC0-t ([2]; 1 mg/kg): 446 ± 282 h·h·ng·mL^−1
- MRTIV ([3]; BALB/c mice, doxorubicin I.V. 2.00 mg/kg alone): 14.6 ± 5.71 h
- MRTIV ([3]; BALB/c mice, doxorubicin I.V. 2.00 mg/kg combined with NSC23925b 2.50 mg/kg): 17.3 ± 4.17 h
- AUMC0-inf [3, 7]: 4157 ± 2493 h·h·ng·mL^−1
- AUMC0-t [3, 7]: 1470 ± 309 h·h·ng·mL^−1
- AUC(0-inf) [3, 7]: 272 ± 53.7 ng·h/mL
- AUC(0-t) [3, 7]: 207 ± 9.76 ng·h/mL
- Vd [3, 7]: 105 ± 19.8 L/kg
- clearance [3, 8]: 126 ± 22.4 mL/min/kg
- clearance [3, 9]: 155 ± 19.2 mL/min/kg
- k el [3, 8]: 1.89e-05 s⁻¹
- k el [3, 9]: 1.52e-05 s⁻¹
- half-life ([3]; male, BALB/c, mouse, plasma, iv, 2 mg/kg, t1/2, BALB/c mice, doxorubicin I.V. 2.00 mg/kg alone): 10.7 ± 3.29 h
- half-life ([3]; male, BALB/c, mouse, plasma, iv, 2 mg/kg, t1/2, BALB/c mice, doxorubicin I.V. 2.00 mg/kg combined with NSC23925b 2.50 mg/kg): 12.8 ± 1.91 h
- MRTIV [4, 10]: 11.1 ± 2.41 h
- MRTIV [4, 11]: 16.1 ± 0.771 h
- clearance [4, 10]: 151 ± 43.1 mL/min/kg
- clearance [4, 11]: 120 ± 7.57 mL/min/kg
- k el [4, 10]: 1.93e-05 s⁻¹
- k el [4, 11]: 1.35e-05 s⁻¹
- half-life [4, 10]: 10.5 ± 2.76 h
- half-life [4, 11]: 14.3 ± 0.87 h
- AUC(0-inf) ([5]; 1 mg/kg): 117 ± 32.5 ng·h/mL
- AUC(0-t) ([5]; 1 mg/kg): 89.7 ± 35.6 ng·h/mL
- Vd ([5]; 1 mg/kg, VdSS): 97.1 ± 19.5 L/kg
SMILES: COc1cccc2c1C(=O)c1c(O)c3c(c(O)c1C2=O)C[C@@](O)(C(=O)CO)C[C@@H]3O[C@H]1C[C@H](N)[C@H](O)[C@H](C)O1 [Doxorubicin, reference compound]

- IC50 [6]: 4080 nM
SMILES: COc1ccc2[nH]c([S+]([O-])Cc3ncc(C)c(OC)c3C)nc2c1 (centres unmarked) [Omeprazole, reference compound]

- AUMC0-inf ([2]; 5 mg/kg): 29892 ± 4245 h·h·ng·mL^−1
- AUMC0-t ([2]; 5 mg/kg): 13231 ± 1265 h·h·ng·mL^−1
- Kel ([2]; 5 mg/kg): 0.0602 ± 0.0042 h⁻¹
- MRTIV ([2]; 5 mg/kg): 6.50 ± 0.853 h
- VdSS ([2]; 5 mg/kg): 7.13 ± 1.34 L/kg
- AUMC0-inf [3, 12]: 2911 ± 400 h·h·ng·mL^−1
- AUMC0-t [3, 12]: 2728 ± 356 h·h·ng·mL^−1
- MRTIV [3, 12]: 1.16 ± 0.147 h
- AUC(0-inf) [3, 12]: 2520 ± 244 ng·h/mL
- AUC(0-t) [3, 12]: 2500 ± 238 ng·h/mL
- clearance [3, 12]: 33.2 ± 3.12 mL/min/kg
- k el [3, 12]: 0.000149 s⁻¹
- Vd [3, 12]: 2.31 ± 0.428 L/kg
- half-life ([3]; male, BALB/c, mouse, in vivo, iv, 5 mg/kg, t1/2): 1.33 ± 0.28 h
- AUC(0-inf) ([5]; 5 mg/kg): 4610 ± 517 ng·h/mL
- AUC(0-t) ([5]; 5 mg/kg): 4200 ± 492 ng·h/mL
- clearance ([5]; 5 mg/kg, CL): 18.2 ± 1.93 mL/min/kg
SMILES: CC(=O)O[C@H]1C(=O)[C@@]2(C)[C@H]([C@H](OC(=O)c3ccccc3)[C@]3(O)C[C@H](OC(=O)[C@H](O)[C@@H](NC(=O)c4ccccc4)c4ccccc4)C(C)=C1C3(C)C)[C@]1(OC(C)=O)CO[C@@H]1C[C@@H]2O [Paclitaxel, reference compound]
